Measured values published in patent US20100028419A1, “MEMBRANE(S) AND USES THEREOF” (priority 2007, published 2010).

Experiments:
[1] = tested on: MCF-7 cells; experiment: In vitro transfection: uptake of fragmented ODN-cubic membrane complexes, fluorescence microscopy and TEM; format: cell-based, human; details: 5 h
Method: Isolated mitochondria pellets (from fed, 10 days starved Chaos cells and mice liver) from Example 1 and transfected MCF-7 cell pellet prepared according to Example 4 were studied by the conventional TEM technique. Samples in the pellet forms were first fixed individually with 2.5% glutaraldehyde in 1×PBS at 4° C. After washing 4 times with 1×PBS buffer over 1 h to remove glutaraldehyde, the samples were post-fixed with 1% osmium tetroxide in 1× PBS buffer (pH 7.4) for 20 min at room temperature. The specimens were then washed 4 times with the 1×PBS buffer at 4° C. Thereafter 3% gelatin in PBS was added for 30 min before spinning down to collect the pellets at 2,500 rpm for 5 min. The specimens were stored at 4° C. overnight and the steps of adding 2.5% glutaraldehyde in PBS and washing with PBS were repeated for another cycle. The bigger specimens were trimmed into small cubes (1 mm in length) and washed with distilled water for 5 min. Dehydration through ethanol series was done using ethanol of 25%, 50%, 75%, 95% and 100% for 10 min each at room temperature. The specimens were then infiltrated with 100% acetone: resin in 1:1 ratio for 30 min at room temperature and with 100% acetone: resin in 1:6 ratio overnight. […]
There were three negative controls. […] The remaining cells were viewed 5 h post-transfection under the fluorescence microscope for the uptake of tagged-ODNs.

[2] = tested on: amoeba Chaos cells; experiment: Continuous addition of DPA (C22:5) into amoeba culture medium, TEM study; format: cell-based, Chaos carolinense; details: 0.1 mM final concentration, fed Chaos cells with Paramecium present, 3 additions on alternate days, fixed at day 5
Method: All-cis-4,7,10,13,16 Docosapentaneoic Acid (DPA, C22:5n-6) (Sigma) and Cis-7,10,13,16,19 DPA (C22:5n-3) (Sigma) were dissolved in Diethyl Ether and added to the amoeba culture media at a final concentration of 0.1 mM. DPA (n-3) and DPA (n-6) were added separately after amoeba washing and in the presence of the food organisms (Paramecium multimicronucleatum). The procedure was performed every alternative day for a total of 3 times according to the regular feeding schedule. At day 5 post-DPA treatment Chaos cells were fixed in 2.5% glutaraldehyde for TEM processing according to the procedure described in Example 6.

Compound	inclusion bodies in cells (TEM) [1]	inner mitochondrial membrane transformation to cubic organization (TEM) [2]
5′ tct ccc agc gtg cgc cat 3′ (DNA TCTCCCAGCGTGCGCCAT; chemistry not given here) [naked ODNs]	no inclusion bodies observed	–
CC/C=C\C/C=C\C/C=C\C/C=C\C/C=C\CCCCCC(=O)O [DPA (n-3), Cis-7,10,13,16,19 DPA]	–	did not have the same drastic effects on the inner mitochondrial membrane organization
CCCCC/C=C\C/C=C\C/C=C\C/C=C\C/C=C\CCC(=O)O [DPA (n-6), All-cis-4,7,10,13,16 Docosapentaneoic Acid]	–	enhanced their inner mitochondrial membrane transformation from random tubular (A) to cubic organization (D)
